Paper PMC7114316 (Antiviral Research, 2019)
Like-named read-outs stand apart in the source and are kept apart here.

Legend:
[1] = target: FIPV 3CL^pro (Feline coronavirus, UniProt Q98VG9); assay: FIPV 3CLpro protease inhibition assay; assay type: biochemical, feline infectious peritonitis virus (FIPV strain 79–1146); conditions: for IC50: 35 nM enzyme, 6 μM fluorogenic substrate
[2] = test system: FIPV strain 79–1146; assay: Antiviral assay, prophylactic activity; assay type: cell-based, feline infectious peritonitis virus; conditions: for Prophylactic antiviral activity SI: SI = CC50/EC50; for concentration that completely protects the cells from virus infection: prophylactic or protective activity; for EC50: read-out: Prophylactic antiviral activity EC50, IPMA
[3] = test system: CRFK cells; assay: Cytotoxicity assay; assay type: cell-based, feline; conditions: read-out: Cytotoxicity CC50, 48 h, MTS assay
[4] = test system: FIPV strain 79–1146; assay: Antiviral assay, pre-viral entry activity; assay type: cell-based, feline infectious peritonitis virus; conditions: for Pre-viral entry SI: SI = CC50/EC50; for EC50: read-out: Pre-viral entry EC50, IPMA, 24 h
[5] = test system: FIPV strain 79–1146; assay: Antiviral assay, post-viral entry activity; assay type: cell-based, feline infectious peritonitis virus; conditions: for Post-viral entry SI: SI = CC50/EC50; for EC50: read-out: Post-viral entry EC50, IPMA
[6] = test system: FIPV strain 79–1146; assay: Antiviral assay in FIPV-infected CRFK cells, summary over the test conditions; assay type: cell-based, feline infectious peritonitis virus; conditions: for control of FIPV infection under all the tested conditions: result in words; for EC50: Alphacoronavirus 1, CRFK, read-out: EC50, range over antiviral test conditions
[7] = Cytotoxicity assay; assay type: cell-based, feline; conditions: cat, CRFK cells
[8] = test system: 3CL^pro of SARS-CoV; conditions: read-out: IC50, 3CL^pro of SARS-CoV; cited from earlier work
[9] = target: HIV-1 integrase; conditions: read-out: IC50, anti-HIV-1 integrase activities; ref Neamati et al., 1997; cited from earlier work
[10] = read-out: Protease inhibition assay (IC50)
[11] = compound incubation at 37 °C for 2 h before inoculation with FIPV at 100 TCID50/well, CRFK cells
[12] = 100 TCID50 FIPV incubation with compounds, CRFK cells
[13] = 100 TCID50 FIPV adsorption at 37 °C for 2 h before adding the tested compounds, CRFK cells
[14] = Protease inhibition assay (IC50)

Sequence of FIPV 3CL^pro (Q98VG9 2904-3205 limits assumed): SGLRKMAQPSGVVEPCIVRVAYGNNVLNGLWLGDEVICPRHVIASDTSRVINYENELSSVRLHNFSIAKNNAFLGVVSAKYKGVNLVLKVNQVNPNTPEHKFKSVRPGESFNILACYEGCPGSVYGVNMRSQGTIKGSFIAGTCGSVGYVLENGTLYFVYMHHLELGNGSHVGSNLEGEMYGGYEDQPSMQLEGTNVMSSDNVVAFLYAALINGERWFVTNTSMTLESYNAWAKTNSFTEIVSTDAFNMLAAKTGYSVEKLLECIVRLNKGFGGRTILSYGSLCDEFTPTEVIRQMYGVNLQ

SMILES: O=c1cc(-c2ccc(O)c(O)c2)oc2cc(OCc3ccccc3)cc(O)c12 [CID71313853]
- IC50 [1, 10]: > 500 µM

SMILES: CC1Oc2cc3c(-c4c(O)cc(O)c5c(O)c6c(cc45)OC(C)C(C)C6=O)c(O)cc(O)c3c(O)c2C(=O)C1C (centres unmarked) [NSC345647, Chaetochromin]
- Prophylactic antiviral activity SI [2]: 3.69
- concentration that completely protects the cells from virus infection ([2]; CRFK cells): 20 to 50 µM
- EC50 [2, 11]: 2.85 ± 0.52 µM
- IC50 [1, 10]: 6.3 ± 2.1 µM
- CC50 [3]: 10.5 ± 0.13 µM
- Pre-viral entry SI [4]: 8.88
- EC50 [4, 12]: 1.19 ± 0.95 µM
- Post-viral entry SI [5]: 2.20
- EC50 [5, 13]: 4.87 ± 0.12 µM

SMILES: CC[C@](C)(O)C(=O)O[C@H]1C(=O)O[C@@H]2C[C@H]3C(C)=C[C@H](O)[C@@H](O)[C@]3(C)[C@H]3[C@]4(O)OC[C@]32[C@@H]1[C@@H](C)[C@H]4O [NSC14975]
- IC50 [1, 14]: > 500 µM

SMILES: COc1cc(O)c2c(=O)cc(-c3ccc(O)c(O)c3)oc2c1 [CID5318214]
- EC50 [2, 11]: > 200 µM
- control of FIPV infection under all the tested conditions [6]: could not control FIPV infection
- IC50 [1, 10]: 28.5 ± 4.2 µM
- CC50 [3]: 339.3 ± 0.03 µM
- EC50 [4, 12]: > 100 µM
- EC50 [5, 13]: > 100 µM

SMILES: C=C1C[C@@]23CC[C@H]4[C@@](C)(CCC[C@@]4(C)C(=O)O)[C@@H]2CC[C@]1(O)C3 [CID452967]
- IC50 [1, 10]: > 500 µM

SMILES: Cc1cccc(C)c1OCC(=O)N[C@@H](Cc1ccccc1)[C@@H](O)C[C@H](Cc1ccccc1)NC(=O)[C@H](C(C)C)N1CCCNC1=O [Lopinavir, reference compound]
- EC50 ([2]; Alphacoronavirus 1, CRFK): 31.7 ± 1.37 µM
- Prophylactic antiviral activity SI [2]: 16.61
- EC50 [6]: 5.38 to 31.7 µM
- CC50 at 48 h [7]: > 500 µM
- IC50 [8]: ~50 µM
- EC50 ([4]; Alphacoronavirus 1, CRFK): 8.56 ± 0.47 µM
- Pre-viral entry SI [4]: 61.52
- EC50 ([5]; Alphacoronavirus 1, CRFK): 5.38 ± 2.32 µM
- Post-viral entry SI [5]: 97.83

SMILES: CC(=O)O[C@@H]1[C@@H](O)C2=C3[C@]4(C)[C@@H]1C(C)(C)C(=O)C[C@@H]4[C@]3(O)[C@H](OC(C)=O)[C@@]1(C[C@@H]1C)C2=O [NSC270914]
- IC50 [1, 10]: > 500 µM

SMILES: CC[C@H]1CN2CCc3cc(OC)c(OC)cc3[C@@H]2C[C@@H]1C[C@H]1NCCc2c1[nH]c1ccc(O)cc21 [NSC131547]
- IC50 [1, 10]: > 500 µM

SMILES: Cc1ccc(S(=O)(=O)N/N=C\C=C\c2ccccc2)cc1 [CID5372747]
- EC50 [2, 11]: > 200 µM
- control of FIPV infection under all the tested conditions [6]: could not control FIPV infection
- IC50 [1, 10]: 78.4 ± 2.6 µM
- CC50 [3]: 336.2 ± 0.13 µM
- EC50 [4, 12]: > 100 µM
- EC50 [5, 13]: > 200 µM

SMILES: NC(=O)c1ncn([C@@H]2O[C@H](CO)[C@@H](O)[C@H]2O)n1 [Ribavirin, reference compound]
- EC50 ([2]; Alphacoronavirus 1, CRFK): > 200 µM
- antiviral effect in the prophylaxis study ([2]; result in words): did not show an antiviral effect
- EC50 [6]: 48.9 to 74 µM
- CC50 at 48 h [7]: > 500 µM
- EC50 ([4]; Alphacoronavirus 1, CRFK): 48.9 ± 1.77 µM
- Pre-viral entry SI [4]: 25.68
- EC50 ([5]; Alphacoronavirus 1, CRFK): 73.98 ± 0.18 µM
- Post-viral entry SI [5]: 16.96

SMILES: O=C1c2cc(O)c(O)cc2OC(c2ccc(O)c(O)c2)C1O (centres unmarked) [NSC36398]
- IC50 [1, 10]: > 500 µM

SMILES: C[C@@H]1O[C@@H](Oc2cc(O)c3c(=O)c(O)c(-c4ccc(O)c(O)c4)oc3c2)[C@H](O)[C@H](O)[C@H]1O [CID5748601]
- EC50 [2, 11]: > 200 µM
- control of FIPV infection under all the tested conditions [6]: could not control FIPV infection
- IC50 [1, 10]: 77.2 ± 13.8 µM
- CC50 [3]: 425.3 ± 0.13 µM
- EC50 [4, 12]: > 100 µM
- EC50 [5, 13]: > 100 µM

SMILES: CO[C@H]1C[C@@H]2\C=C(C)/C=C/C=C\C(=O)N[C@H](c3ccccc3)C/C=C/CC[C@H](O)CC(=O)C2=C1O [NSC343256, Hitachimycin]
- concentration that completely protects the cells from virus infection ([2]; CRFK cells): 20 to 50 µM
- EC50 [2, 11]: 16.2 ± 1.23 µM
- IC50 [1, 10]: 24.5 ± 8.9 µM
- CC50 [3]: 56.9 ± 0.73 µM
- Pre-viral entry SI [4]: 2.89
- EC50 [4, 12]: 3.83 ± 0.44 µM
- Post-viral entry SI [5]: 2.77
- EC50 [5, 13]: 4 ± 0.37 µM

SMILES: C[C@]1(O)CC[C@H]2[C@@H]3CC[C@H]4C[C@@H](O)CC[C@]4(C)[C@@]3(F)[C@@H](O)C[C@@]21C [NSC38273]
- IC50 [1, 10]: > 500 µM

SMILES: O=C1C(=O)N(Cc2ccc(Cc3ccc(CN4C(=O)C(=O)c5ccccc54)cc3)cc2)c2ccccc21 [CID3821945]
- EC50 [2, 11]: > 200 µM
- control of FIPV infection under all the tested conditions [6]: could not control FIPV infection
- IC50 [1, 10]: 10.3 ± 2.5 µM
- CC50 [3]: 306.8 ± 0.175 µM
- EC50 [4, 12]: > 100 µM
- EC50 [5, 13]: > 100 µM

SMILES: COc1cc(C)c2c(c1C=O)Oc1c(c(C)c(O)c3c1C(O)OC3=O)OC2=O (centres unmarked) [NSC87511, Stictic acid]
- EC50 ([2]; Alphacoronavirus 1, CRFK): 26.9 ± 1.25 µM
- Prophylactic antiviral activity SI [2]: 13.80
- concentration that completely protects the cells from virus infection ([2]; CRFK cells): 20 to 50 µM
- Ki ([1]; Ki value, competitive inhibition, 35 nM FIPV 3CL^pro, substrate 3 to 40 μM): 17 ± 1.8 µM
- IC50 [1, 14]: 29.4 ± 4.6 µM
- CC50 at 48 h [7]: 371.9 ± 0.26 µM
- IC50 [9]: < 50 µM
- EC50 ([4]; Alphacoronavirus 1, CRFK): 16.2 ± 1.33 µM
- Pre-viral entry SI [4]: 22.90
- EC50 ([5]; Alphacoronavirus 1, CRFK): 21.8 ± 1.64 µM
- Post-viral entry SI [5]: 17.04

SMILES: C/C(=C\COc1ccc2ccc(=O)oc2c1)C1=CC(=O)C(C)(C)O1 [NSC142227]
- IC50 [1, 10]: > 500 µM
